Measurements published in US20200376138A1, “LIPID NANO PARTICLE COMPLEX COMPRISING APTIDE FUSED WITH CELL PENETRATING MATERIALS AND USE SAME” (Korea Advanced Institute of Science and Technology, priority 2019, published 2020).
pKd: −log10 of the molar value. Ends that are not written are not given here.

Key:
[1] = test system: psoriasis animal model; test: Inhibitory effect on inflammation in imiquimod-induced psoriasis animal model; assay type: in vivo, mouse; conditions: day 7
Description: The nanoparticle complex prepared in Example 3 was applied on the skin of a psoriasis animal model and the inhibitory effect of the complex on inflammation caused by psoriasis was investigated. First, the hair of the ear of the mouse was removed, and imiquimod was continuously treated at the concentration of 20 mg/cm^2 for 6 days from the next day to induce psoriasis. On the other hand, on the 2nd to 6th day of the treatment of imiquimod, the nanoparticle complex of Example 3 or Comparative Example 3 was applied in a total amount of 100 μg, 50 μg per time. On the day when imiquimod and the treatment drug were treated together, the treatment drug was applied 4 hours before and after the application of imiquimod to prevent the interaction between the drugs. At this time, the groups treated with Vaseline and DW were used as the negative control, and the group applied with clobetasol propionate (CLQ) at the concentration of 20 mg/cm^2 was used as the positive control. The application of the nanoparticle complex was completed by day 6, and the inhibitory effect on inflammation was confirmed using the animal model on day 7 (FIG. 14). Particularly, the inhibitory effect on inflammation was confirmed by measuring the thickness of the ear of the animal model, the punch biopsy weight, tissue H&E test, ELISA after tissue crushing, and the extracted spleen weight. […]

[2] = target: STAT3 protein (Homo sapiens, UniProt P40763); test: Binding of the aptide to STAT3 protein; conditions: read-out: affinity of binding to STAT3 protein
STAT3 protein, sequence (P40763 whole entry, species assumed, the tested form may be a part): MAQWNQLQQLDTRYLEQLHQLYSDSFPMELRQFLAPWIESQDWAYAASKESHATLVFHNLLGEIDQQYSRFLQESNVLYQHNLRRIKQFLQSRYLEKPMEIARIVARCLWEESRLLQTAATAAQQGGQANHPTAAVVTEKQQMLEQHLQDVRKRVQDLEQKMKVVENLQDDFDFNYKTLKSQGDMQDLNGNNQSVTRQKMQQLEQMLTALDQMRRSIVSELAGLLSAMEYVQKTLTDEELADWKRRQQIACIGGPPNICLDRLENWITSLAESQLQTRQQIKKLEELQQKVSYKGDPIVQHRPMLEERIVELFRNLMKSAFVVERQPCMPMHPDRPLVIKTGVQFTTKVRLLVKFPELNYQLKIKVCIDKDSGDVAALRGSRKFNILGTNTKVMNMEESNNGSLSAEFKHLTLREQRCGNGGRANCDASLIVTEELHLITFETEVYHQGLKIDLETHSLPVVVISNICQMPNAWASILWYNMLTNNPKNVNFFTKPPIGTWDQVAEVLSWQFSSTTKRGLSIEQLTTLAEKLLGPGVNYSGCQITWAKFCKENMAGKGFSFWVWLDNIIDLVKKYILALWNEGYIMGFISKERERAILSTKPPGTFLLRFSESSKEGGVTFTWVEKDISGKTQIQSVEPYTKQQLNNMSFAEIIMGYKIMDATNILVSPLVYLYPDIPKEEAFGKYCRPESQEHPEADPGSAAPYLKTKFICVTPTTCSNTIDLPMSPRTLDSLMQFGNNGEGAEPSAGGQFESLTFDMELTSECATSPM
Description: The aptide according to the present invention can be an aptide that specifically binds to STAT3 (signal transducer and activator of transcription 3) protein, and can specifically be composed of the amino acid sequence represented by SEQ. ID. NO: 2. the aptide for STAT3 protein is stable with a size of about 5 kDa, and can bind to STAT3 protein with a high affinity of 200 nM. The aptide for STAT3 protein can inhibit the activation of STAT3 protein by binding to SH2 domain of STAT3 protein and suppressing the phosphorylation. This mechanism may have less effect on an inaccurate target than a conventional JAK inhibitor that inhibits the activation of STAT3 protein using the JAK inhibitory mechanism.

[3] = test system: MLE12 cells; test: Epithelial-to-myofibroblast differentiation, vimentin FACS after TGF-β; assay type: cell-based
[4] = test system: MLE12 lung epithelial cells; test: Lung epithelial cell uptake (confocal, FACS); assay type: cell-based; conditions: 20 μM, 4 h
Description: In vitro cell uptake of FITC-APTstat3-9R and FITC-APTstat3-9R-DLNPs was determined by confocal microscopy imaging and FACS analysis. For confocal imaging, MLE12 cells were seeded on sterile cover glass in 12-well plate at 5×10^5 cells/well density followed by overnight incubation. The cells were treated with PBS, FITC-APTstat3-9R (20 μM), or FITC-APTstat3-9R-DLNPs (20 μM) for 4 h. The samples were washed twice with 1×PBS to discard free aptides. Subsequent sample preparation and analysis were described previously in in vitro macrophage polarization analysis section. For FACS experiment, MLE 12 cells were seeded in a 6-well plate at 3×10^5 cells/well density and incubated overnight for stabilization. The samples were treated with PBS, FITC-APTstat3-9R (20 μM), or FITC-APTstat3-9R-DLNPs (20 μM) for 4 h, washed, and collected using trypsin. The following steps were previously detailed in in vitro macrophage polarization analysis.

[5] = test system: RAW264.7 cells; test: M2 polarization of IL-10 stimulated macrophages, CD163 FACS; assay type: cell-based, mouse; conditions: 20 μM, IL-10 stimulation 48 h
Description: To perform FACS analysis, mouse macrophage cell line (RAW264.7) was seeded in a 6-well plate at 2×10^5 cells/well density and incubated overnight for stabilization. In order to induce M2-type polarization, the samples were stimulated with IL-10 for 48 h in a 37° C.-maintained, 5% CO2 incubator. PBS, APTscr-9R(20 μM), and APTstat3-9R(20 μM) were simultaneously accordingly added for co-treatment. After the incubation, the specimens were collected and incubated for 30 min with 10% BSA in PBS to block non-specific binding of antibodies. After blocking, the samples were washed with three changes of 1×PBS for 5 min each. The collected specimens were resuspended in a 1 mL of separation buffer. The cells were collected in the filter tubes with strainer ([…]). After buffer removal, direct immunostaining was performed using phycoerythrin-cojugated CD163 monoclonal primary antibody (Invitrogen, Waltham, Mass., USA) at […] with 90 min incubation at 4° C. Upon the incubation, the cells were once again washed with three changes of 1×PBS for 5 min. […] The samples (20,000 cells) were analyzed using a LSR Fortessa™ high-performance multi-parameter flow cytometer (BD Bioscience, San Jose, Calif., USA) processed with FlowJo software (Tree Star Inc., San Carlos, Calif., USA).

CCC(=O)O[C@]1(C(=O)CCl)[C@@H](C)C[C@H]2[C@@H]3CCC4=CC(=O)C=C[C@]4(C)[C@@]3(F)[C@@H](O)C[C@@]21C [CLQ, clobetasol propionate]
size and weight of the spleen [1]: shrivelled

HGFQWPGSWTWENGKWTWKGAYQFLK [aptide for STAT3 protein]
pKd [2]: 6.70

APTscr-9R: control aptide, SEQ ID NO:9; b173 calls it a lipid nanoparticle complex prepared as Example 3 with this aptide (HASDRNGSWTWENGKWTWKGLHEQSD; also: part of a lipid nanoparticle complex) [reference compound]
vimentin marker level after stimulation [3]: vastly increased

HGFQWPGSWTWENGKWTWKGAYQFLKGGGGSRRRRRRRRR (Aptide against STAT3 fused with nona-arginine) [APTstat3-9R]
vimentin marker level after stimulation [3]: fairly decreased
reduction of vimentin level compared to PBS treated group ([3]; TGF-β stimulation): approximately 29%
uptake into MLE 12 lung epithelial cells (confocal images) [4]: uptaken
increase in CD163 level (M2 macrophage specific marker) [5]: not upregulated
